This is an account of results in US7615361B2, “Toxicity screening methods” (Ceetox, Inc., priority 2006, dated 2009).

Series [1] can be described thus: MTT reduction. The series is classed as cell-based. To be noted: rat, NRK cells, read-out: MTT TC50. An excerpt: Tetrazolium Dye Reduction: 3-[4,5-dimethylthiazol-2-yl]
The third experiment was done to evaluate the specificity and selectivity of the test compound in another non-tumor cell that was derived from normal rat kidney tissue. In this experiment the test compound has no effect on cell number of acute cell death up to the 500 dilution after 6 and 24 hr of exposure (FIG. 76C and 77C). Significant effects were observed on mitochondrial markers at dilutions that dropped pH to 3.7. The bar graph in FIG. 82 summarizes these effects. […] In contrast the rat tumor cell line was sensitive to the test compound and cell death occurred at the 500 dilution and could not be attributed to low pH.
(Tetrazolium assays rely on reduction of a dye to a coloured formazan, in cell work by metabolically active cells.)

A short description of series [2]: Intracellular ATP levels. Type of series: cell-based. To be noted: read-out: ATP TC50; for CC50 at 72 h: SK-MEL28, 72 HR, run #2. As to the method:
Intracellular ATP Levels: Cellular Adenosine triphosphate (ATP) was determined with an assay based on a reaction between ATP+D-luciferin+oxygen catalyzed by luciferase to yield Oxyluciferin+AMP+PPi+CO2+light. The emitted light is proportional to the amount of ATP present. […] In addition, a unique cell lysis reagent inhibits endogenous ATPases and therefore stabilizes cellular ATP by preventing its degradation to ADP. ATP is present in all-living cells and declines rapidly upon cell death. In addition, this assay in combination with the MTT assay provides an indicator of mitochondrial activity and energy status of the cell.
Plates were analyzed immediately or stored at −20° C. until needed. On the day of analysis, the plates were thawed and calibration curve prepared with ATP in the same liquid matrix as samples. ATP was quantified by adding ATP substrate solution and then reading luminescence on a Packard Fusion Luminescence or equivalent plate reader.
Intracellular ATP Levels: ATP levels in treated cells could be determined by using the regression coefficients obtained from the linear regression analysis of the calibration curve. Thus, values could be expressed as pmoles ATP/million cells. Background corrected luminescence was used to determine percent change relative to controls by dividing treated values by control values and multiplying by 100.
Dosing solutions were prepared in complete culture medium.

The nature of series [3]: BrdU incorporation. Type of series: cell-based, human. Conditions: human, run #2, read-out: BrdU TC50; for CC50 at 24 h: SK-MEL28, 24 HR; for CC50 at 72 h: SK-MEL28, 72 HR. Here is the method:
Bromodexoyurine (BrDU) Incorporation: This assay was used to monitor cumulative changes in DNA replication. The assay uses the thymidine analog BrdU to measure S-phase of cell replication and is considered to be the Gold Standard for cell proliferation. BrDU (10 μM) was included in the test compound dosing solution to allow BrDU incorporation during cell replication. BrDU was included for the duration of the exposure, 24 hr. After completion of exposure period, the cells were fixed and labeled with mouse monoclonal anti-BrDU (FITC). Fluorescence was measured using a Packard Fusion or equivalent plate reader at 485 nm excitation and 530 nm emission.
Bromodexoyurine (BrDU) Incorporation: After incubation, the test compound/BrDU solution was removed and cells were fixed. A solution containing mouse monoclonal anti-BrDU (FITC) was added and fluorescence was measured. Data were collected as relative fluorescent units (RFU). The blank was subtracted from the final well RFU. It represents the average of the first and last columns which contain no cells on that particular plate. The controls are untreated cells allowed to grow on the same plate. The compounds are represented by several separate RFU data points for each of the tested concentrations. The percent change relative to controls was calculated by dividing the average RFU by the control cell RFU and multiplying by 100.
Experiments were also conducted to verify the relationship between exposure time and the observed cytostatic effects of the test compound. An additional assay was used to monitor cumulative change in DNA replication. The assay uses the thymidine analog BrdU to measure S-phase of cell replication and is considered to be the Gold Standard for cell proliferation. […] The BrdU assay paralleled the MTT and propidium iodide assays. The apparent lower sensitivity of the BrdU assay is a reflection of the experimental design not the assay. BrdU data represents a cumulative effect from the beginning of exposure while the other assays are measuring one is remaining at the end of either the 24 hr or 72 hr exposure period. […] There was a trend toward increasing activity in caspase-3, a marker for cell apoptosis.
(In general: Incorporation of labelled thymidine or its analogues reports DNA synthesis.)

The test system of series [4] is HUVEC. The series is described as follows: Predicted Ctox from Tox-Panel. Type of series: cell-based, human. To be noted: 24 HR. As to the method:
(§1) Studies such as these indicate that a preferred concentration for setting Ctox is the highest concentration at which there is no observed effect on any of the indicators being measured in the cluster analysis, especially a 24-hour cluster analysis. […] It will be apparent that 24 hour assays are more time-effective, and consequently, the 24 hour NOEL/Ctox represents a preferred data point to select as Ctox in a CATS assay. It will also be apparent that, with further time studies, it may be possible to select an equally suitable Ctox at other CATS assay time points (e.g., between 24 and 72 hours, or less than 24 hours).
(§2) In certain embodiments, the predicting comprises performing concentration response analyses of measurements from at least three separate assays that are employed in the cluster analysis. For example, in the cell health cluster, such predicting will involve monitoring the concentration response effect of the compound on a first health indicator which monitors cellular replication, a second cell health indicator which monitors mitochondrial function, and a third cell health indicator which monitors membrane integrity. Of course, it is understood that fourth, fifth, sixth or more cell health indicators also may be employed. From these concentration response analyses, the highest concentration of the chemical compound at which a measurable toxic effect of the chemical compound is not observable, i.e. NOEL, is determined and the Ctox is identified as the concentration that correlates to the NOEL. In choosing the concentrations of the compound for analysis, one of skill in the art should devise a dose response regimen which is selected to provide an indication of cell health at concentrations of at least two concentration values higher than the Ctox concentration.
(§3) The results are summarized in Tables 14-17 and in FIGS. 83-102. Table 14 compares the test compound TC50 values for each assay endpoint. Test compounds are rank-ordered from most to least toxic based on their TC50 values and overall shape of the response curves. The Ctox value, or estimated sustained blood concentration where toxicity would first be expected to occur in a rat 14-day repeated dose study, is also included in this table. Negative and positive controls are included with every run. Assay response is continually monitored to assure reliable results. […] Table 15 summarizes oxidative stress and apoptosis data, Table 16 summarizes the solubility data, and Table 17 provides information on interaction with PgP.
(§4) The Ctox value was developed using 24 hr in vitro (H4IIE) toxicity data and was validated by retrospectively evaluating compounds across different classes of drugs in 14-day rat studies in which compounds were administered on a daily basis and pharmacokinetic data was available. […] Thus, Ctox values are only determined for the 24 hr in vitro results. In this example, Ctox values could not be estimated due to low toxicity in most of the cell lines.

Series [5] has as its system NHEM cells. Nature of the series: Predicted Ctox from Tox-Panel. To be noted: 24 HR. The series is classed as cell-based, human. As to the method:
as §1, §2, §3, §4

Series [6] has as its system SK-MEL28 cells. The series is described as follows: Predicted Ctox from Tox-Panel. The series is classed as cell-based, human. To be noted: SK-MEL28, 24 HR. Here is the method:
as §1, §2, §3, §4

`CC[C@@]1(O)C(=O)OCc2c1cc1n(c2=O)Cc2cc3ccccc3nc2-1` [CAMPTOTHECIN, Camptothecin]: in series [1], the CC50 at 6 h is 300 µM. Moreover, the CC50 at 24 h in series [1] was 100 µM; in series [2] (human, HUVEC) it was 40 µM; in series [2] (human, SK-MEL28 cells, SK-MEL28, 24 HR), 293 µM; in series [3] (SK-MEL28 cells), 0.1 µM. For the same compound, the CC50 at 72 h came out at 0.1 µM in series [2] (human, SK-MEL28 cells) and 0.2 µM in series [3] (SK-MEL28 cells). In addition, the “Predicted Ctox” value is 0.1 µM in series [4], 33 µM in series [5], 0.1 µM in series [6] and 0.1 µM in series [6] (run #2).
Take `C=C(C)[C@H]1Cc2c(ccc3c2O[C@@H]2COc4cc(OC)c(OC)cc4[C@@H]2C3=O)O1` [ROTENONE, Rotenone]: the CC50 at 6 h in series [1] worked out at 10 µM. For the same compound, the values for the CC50 at 24 h in series [1], in series [2] (human hepatocytes) and in series [3] were 10 µM, 6 µM and 9 µM, respectively. The CC50 at 72 h is 2 µM in series [2] (human, SK-MEL28 cells) and 44 µM in series [3]. The “Predicted Ctox” value in series [4] was 0.1 µM; in series [5], 10 µM; in series [6] it was 1 µM; in series [6] (run #2), 0 µM.
